Data as given in patent US20180369195A1, “COMBINATION THERAPY FOR TREATMENT OF MELANOMA” (The Regents of the University of California, priority 2015, published 2018).

Tests used:
SK-MEL-2 cells [1] = assay: CCK-8 proliferation assay, SK-MEL-2; assay type: cell-based, human; conditions: for antiproliferation in wild-type BRAF cells: 48 hours
Description: […] Cells were treated with 20 μM 1-benzyl I3C every 24 hours for 72 hours and harvested at 24, 48 and 72 hours for western blot and flow cytometric analysis. Cells were treated with 20 μM LiCl or 10 μM BIO for 48 hours before harvesting them for western blots.
Subsequently inhibition of proliferation was assessed using Cell counting Kit-8 (Dojindo) as per the protocol in the user's manual. Briefly, 50 μl of the CCK-8 solution was added to each well along with 450 μl media and incubated for 2-3 hours. The absorbance was read at 450 nm and % inhibition was calculated for each condition standardizing DMSO to zero using the formula: [(100−Value of treatment/Value of DMSO treated control)×100]

[2] = system: multiple melanoma cell lines; assay: Flow cytometry analysis of DNA content, multiple melanoma cell lines; assay type: cell-based, human
Description: (§1) Melanoma cells were treated with the indicated concentrations of 1-benzyl I3C in triplicates every 24 hours and harvested at the end of 24, 48 or 72 hours for cell cycle analysis. The DNA content of propidium iodide stained nuclei from harvested cells were determined by flow cytometry. Briefly, cells were hypotonically lysed in […] of DNA staining solution (0.5 mg/mL propidium iodide, 0.1% sodium citrate, and 0.05% Triton-X 100). Emitted fluorescence from the nuclear of wavelengths more than 585 nm was measured with a Coulter Elite instrument with laser output adjusted to deliver 15 mW at 488 nm. Ten thousand nuclei were analyzed from each sample at a rate of 300-500 nuclei/second. The percentage of cells within the G1, S, and G2/M phases of the cell cycle were determined by analysis with the Multicycle computer program provided by Phoenix Flow Systems in the Cancer Research Laboratory Microchemical Facility of the University of California, Berkeley.

SK-MEL-2 cells [3] = assay: Flow cytometry analysis of DNA content, SK-MEL-2; assay type: cell-based, human; conditions: all tested concentrations of I3C
Description: as §1, with “I3C” left out

MITF-M = assay: Immunofluorescence of tumor xenograft sections for MITF-M; assay type: in vivo, human; conditions: I3C 200 mg/kg, terminal sacrifice, relative to vehicle
Description: (§2) Approximately 1 million G361 melanoma cells in a total volume of 0.1 ml of Matrigel were injected subcutaneously into each lateral flank of NIH III athymic nude mice. The resulting tumors were allowed to grow to a mean starting volume of 146±10 mm^3. The animals were then randomized into two groups; a vehicle control group that was treated with DMSO and an […] treated group that were injected daily with 200 mg/kg body weight of […]. The resulting tumor volumes were measured every other day for four weeks using calipers. The tumor volumes were calculated using the standard formula: […], and changes in tumor volumes were calculated using the formula: 100+{(Tf-Ti)/Ti×100}, where Tf is the final mean tumor volume and Ti is the initial mean tumor volume. At terminal sacrifice, tumor xenografts were harvested, and a portion of each tumor was fixed in 4% para-formaldehyde for 1 hour at room temperature, followed by a phosphate-buffered saline (PBS) wash and subsequently immersed in 3% sucrose overnight at 4° C. The resulting tissues were embedded in OCT and 10 μm thin sections were taken for immunofluorescence studies.

RPMI-7951 cells = assay: CCK-8 proliferation assay, RPMI-7951; assay type: cell-based, human; conditions: 200 μM I3C, 72 hours; BRAF-V600E
Description: Cells were treated with 20 μM 1-benzyl I3C every 24 hours for 72 hours and harvested at 24, 48 and 72 hours for western blot and flow cytometric analysis. […] Subsequently inhibition of proliferation was assessed using Cell counting Kit-8 (Dojindo) as per the protocol in the user's manual. Briefly, 50 μl of the CCK-8 solution was added to each well along with 450 μl media and incubated for 2-3 hours. The absorbance was read at 450 nm and % inhibition was calculated for each condition standardizing DMSO to zero using the formula: [(100−Value of treatment/Value of DMSO treated control)×100]

phosphorylated Erk/MAPK = assay: Immunofluorescence of tumor xenograft sections for ERK-p; assay type: in vivo, human; conditions: I3C treated vs untreated animals
Description: as §2

DM738 cells = assay: Flow cytometry analysis of DNA content, DM738; assay type: cell-based, human; conditions: maximal dose of 200 μM I3C
Description: as §1, with “I3C” left out

SK-MEL-24 cells = assay: CCK-8 proliferation assay, SK-MEL-24; assay type: cell-based, human; conditions: 200 μM I3C, 72 hours; wild type BRAF
Description: Subsequently inhibition of proliferation was assessed using Cell counting Kit-8 (Dojindo) as per the protocol in the user's manual. Briefly, 50 μl of the CCK-8 solution was added to each well along with 450 μl media and incubated for 2-3 hours. The absorbance was read at 450 nm and % inhibition was calculated for each condition standardizing DMSO to zero using the formula: [(100-Value of treatment/Value of DMSO treated control)×100]

BRN2 = assay: Chromatin immunoprecipitation, BRN2 at MITF-M promoter; assay type: cell-based, human; conditions: G-361 cells, 200 μM I3C, 48 hours
Description: […] Proteins were crosslinked to DNA by the addition of formaldehyde at 2.5% of the final concentration for 5 minutes at room temperature to cultured cells. Fixation was quenched with glycine for a final concentration of 125 mmol/1 for 5 minutes. Harvested cells were sonicated and the chromatin was immunoprecipitated overnight and 15 μl of mouse anti-Brn2 antibodies (Santa Cruz Biotechnology) was added to the cell lysates to immunoprecipitate the chromatin-bound Brn2 protein. A fragment of the MITF-M promoter (−170+120) containing the BRN2 binding site (−53 to −27) was amplified using the primers—MITF-M Forward: 5′-CGTCACTTAAAAAGGTACCTTTATATTTATG-3′ (SEQ ID NO:7) MITF-M Reverse: 5′-TGT TTTAGC TAGCACCAATCCAGTGAGAGACGG-3′ (SEQ ID NO:8) by cycling 36 times (95° C., 30 s/52° C. 30 s/72° C., 30 s) with a 72° C., 10 min extension. The PCR products were electrophoretically fractionated on a 1.5% agarose gel and visualized using a transilluminator.

OCc1cn(Cc2ccccc2)c2ccccc12 [1-benzyl I3C, 1-benzyl indole-3-carbinol]
antiproliferation in wild-type BRAF cells (SK-MEL-2 cells [1]): showed antiproliferation
time to significant G1 cell cycle arrest ([2]; 20 μM 1-benzyl I3C, all the cell lines): ≤ 24 h
G1 cell cycle arrest ([2]; varying doses of 1-benzyl I3C, 48 hours): significant G1 cell cycle arrest

OCc1c[nH]c2ccccc12 [I3C, indole-3-carbinol]
sensitivity to anti-proliferative effects (SK-MEL-2 cells [1]; 200 μM I3C, 72 hours, wild type BRAF): significantly less sensitive
antiproliferation in wild-type BRAF cells (SK-MEL-2 cells [1]): ineffective
G1 cell cycle arrest (SK-MEL-2 cells [3]): remained in a rapidly proliferating state
MITF-M protein in tumor xenograft sections (MITF-M): strong down-regulation of MITF-M protein
sensitivity to anti-proliferative effects (RPMI-7951 cells): Most sensitive
level of phosphorylated Erk/MAPK in tumor xenografts (phosphorylated Erk/MAPK): strongly down regulated
G1 cell cycle arrest (DM738 cells): significant G1 cell cycle arrest
sensitivity to anti-proliferative effects (SK-MEL-24 cells): significantly less sensitive
endogenous BRN2 binding to the MITF-M promoter (BRN2): significantly down regulated endogenous BRN-2 interactions with this promoter
